Assay [1] concerns cultured ventricular myocytes. Kind of assay: cAMP content of cultured ventricular myocytes (125I-cAMP RIA). Type of assay: cell-based, rat. The following applies: 1 μM DMPX (FIG. 12). How it is done: When myocytes were to be used for biochemical studies, each of the culture dishes was preincubated for 2 hours with 1 ml of MEM containing 33 μg of laminin in a 37° C. incubator gassed with 5% CO2 in room air. The laminin solution was removed prior to myocyte seeding. After seeding, the dishes were incubated for an additional 2 hours. The settling and short term culture procedures were performed to purify the myocytes so that >95% of the myocytes adhering to the dishes were rod shaped.
Cyclic AMP levels were determined in cultures of ventricular myocytes according to the following method. After the 2-hour incubation period, the MEM was aspirated and replaced with 2 ml of fresh MEM. Adenosine agonists, ISO, or adenosine antagonists were added to the medium bathing the cells at the concentrations and times indicated. The experiment was terminated by removing the medium from the dish and adding 200 μl of 1N HCl over the cultured myocyte surface. The dishes were then frozen in liquid N2 and stored at -70° C. or held on ice momentarily until extraction was initiated.
For assay, the contents of the dishes were transferred (using 1 ml of distilled/deionized H2 O) into microcentrifuge tubes. The extracts were heated for 1 hour at 57° C. and sonicated for 10 minutes. The extracts were then centrifugated at 14,000 x g for 15 minutes. The supernatant was removed, evaporated, reconstituted in 500 μl of 50 mM sodium acetate buffer and assayed for cAMP using an ^125 I-cAMP RIA kit (Amersham). The pellet was solubilized with 0.1N NaOH and protein determined. The cAMP values are reported in pmol cAMP/mg protein of the extract pellet (total cell protein). This cAMP assay procedure routinely provided recovery values in excess of 90%.

A further assay has as its system rat ventricular myocytes. The assay can be described thus: Contractile function of individual ventricular myocytes (line scan camera edge detection, paced at 0.5 Hz). Type of assay: cell-based. How it is done: Primary cultures of adult rat ventricular myocytes were prepared essentially according to previously described methods (Romano et al., Am. J. Physiol. 257:H1088 (1989)). Two male Sprague-Dawley rats (Charles River, Wilmington, Mass. or Harlan, Indianapolis, Ind.) were decapitated, and the hearts were rapidly excised and constant pressure (70 cm H2) and nonrecirculated) perfused for 10 minutes through the aortas with filtered (0.45 μm membrane filter) perfusing solution (NaCl, 118 mM; glucose, 10 mM; NaHCO3 25 mM; KCl, 4.69 mM; MgSO4 1.18 mM; and KH2 PO4, 1.18 mM; (pH 7.4)), to which […] was added, at 37° C. After equilibration, the hearts were constant pressure perfused with fresh physiological saline ("PS") containing no added Ca^2+ until spontaneous contractions ceased (i.e., ~30 seconds). The hearts were then perfused for 4-10 minutes in a nonrecirculating manner with PS containing 0.73 mg/ml collagenase, 0.16 mg/ml hyaluronidase, 1 mg/ml recrystallized bovine serum albumin ("BSA") and 48.4 μM Ca^2+ at a rate of 3-4 ml/min/heart. Ventricles, free of atria, were removed from the perfusion system, cut into 8 pieces and placed in a 50 ml Erlenmeyer flask with 5 ml of PS containing 0.73 mg/ml collagenase, 0.16 mg/ml hyaluronidase, 2.5 mg/ml BSA, and 50 μM Ca^2+ (incubation solution). The flask was gently shaken (40 cycles/min) in a reciprocating water bath with continuous gassing (95% O2, 5% CO2) for 7 minutes at 37° C. The incubation solution was aspirated and this shaking procedure was repeated with fresh incubation solution 3-5 times depending on the likelihood that the tissue was ready to dissociate. After the final incubation period, the solution was aspirated and replaced with 10 ml of fresh incubation solution. The flask was then shaken rapidly (120 cycles/min) for 10 minutes with gassing to dissociate the myocytes. The flask contents were filtered through a 250 μm nylon mesh into a 50 ml polypropylene centrifuge tube, to which 40 ml of PS containing 5.95 mg/ml BSA and 99.7 μm Ca^2+ (wash solution) was gradually added.
The myocytes were allowed to settle for 15 minutes, and the upper two thirds of the wash solution was aspirated. Upon the addition of 30-35 ml of wash solution, this settling step was repeated. The wash solution was aspirated and the myocyte pellet was resuspended in 10 ml of minimum essential medium ("MEM"). The myocyte suspension was allowed to settle for 5 minutes and then brought to a final volume of 22 ml with MEM. Two milliliters of the myocyte suspension was seeded onto each of 60 mm culture dishes containing 2 ml of MEM.
The contractile function of individual myocytes was assessed by dispersing 50-100 cells in a 506 μl myocyte chamber (11×23×2 mm deep). The chamber (FIG. 1) was continuously suffused (850 μl/min) with fresh suffusion solution ("SS") in mM: 136.4 NaCl, 4.7 KCl, 1.0 CaCl2, 10 hydroxyethylpiperzine-ethanesulfonicacid (HEPES), 1.0 NaHCO3, 1.2 MgSO4, 1.2 KH2 PO4, 10 glucose, 0.6 ascorbate, 1.0 pyruvate) at 20° C. The chamber was mounted on an inverted microscope stage and contained platinum wire electrodes for initiating myocyte contraction at 0.5 Hz (voltage 10% above threshold for 5 msec duration).
The image of the myocyte was projected via an inverted microscope at 300× onto a line scan camera (Fairchild, Model 1600R) containing a linear array (1×3456) of photodiodes. When aligned with the longitudinal axis of the cell the camera detected the movement of the 2 ends of the myocyte upon contraction (shortening and relengthening). […] When the myocyte was transilluminated, both ends of the cell were easily discriminated. Myocyte length and length change with respect to time for a single contraction was measured by determining the pixels in which the appropriate transitions between light and dark occurred. The line scan camera was calibrated with a stage micrometer scaled in 10 μm divisions. The signals from the camera were directed to a Hewlett Packard computer (Model Vectra RS/20C). […]

Assay [2] relates to ventricular myocyte membrane adenylyl cyclase. The assay can be described thus: Adenylyl cyclase activity of ventricular myocyte membranes. Type of assay: biochemical, rat. Particulars: DPCPX at 0.1 μM. How it is done: After a 3-4 hour incubation period, myocytes were harvested by placing the culture dishes on ice; aspirating and discarding the culture medium; scraping the attached cells into 1 ml of ice cold buffer (pH 7.4) containing 10 mM HEPES and 1 mM dithiothreitol (DTT); and transferring the mixture to a 40 ml centrifuge tube. The culture dishes were rinsed twice with buffer, and the rinses were added to the centrifuge tube. The myocytes were centrifuged at 45,000 x g for 45 minutes and the supernatant was discarded. The pellet was resuspended in 40 mM HEPES (pH 7.4) to yield 3.5-4 mg protein/ml and homogenized with a small clearance Dounce tissue grinder (8 strokes). The membranes were centrifugated as described above, resuspended (3-4 mg protein/ml) in 40 mM HEPES (pH 7.4), and assayed for adenylyl cyclase activity immediately or stored at -80° C. and assayed within 10 days.
The assay system used to measure adenylyl cyclase activity minimizes the formation of endogenous adenosine. The assay used was essentially as described by Romano et al. (supra). Myocyte membranes (15-25 μg protein) were incubated in 50 μl of a buffer containing 40 mM HEPES (pH 7.4), 5 mM MgCl2, 1 mM DTT, 5.5 mM KCl, 0.1 mM 2'-deoxy-cAMP (dcAMP), 0.1 mM 2'-deoxy ATP (dATP), 20 mM phosphoenolpyruvate, 2 units pyruvate kinase, 0.25 units adenosine deaminase, 1 mM ascorbic acid, 100 mM NaCl, 0.1 mM ethyleneglycol-bis (β-aminoethylether) N,N,N',N',-tetroaceticacid (EGTA), 10 μM guanosine 5'-triphosphate (GTP), and ~2×10^6 counts/minutes of [α-^32 P]dATP for 20 minutes at 30° C. The reaction was stopped by adding 40 μl of a solution containing 2% sodium dodecyl sulfate (SDS), 45 mM ATP, 1.3 mM cAMP, and [^3 H]dcAMP (~4000 count/min) and by boiling for 2 minutes.

Setting [3] is: Table 6, 10^-5 M SHA-082, 10^-5 M NECA, 10^-4 M adenosine, 2 × 10^-7 M DPCPX, 10^-5 M CGS-15943, mean ± SE, N = 6.
Setting [4] is: addition of 0.1 μM DPCPX to 1 μM PIA + 0.1 μM ISO.

With `C#CCn1c(=O)c2c(ncn2C)n(C)c1=O` [DMPX, 3,7-dimethyl-1-propargylxanthine], the “effect on the increase in cAMP caused by 10 μM CGS-21680” value in assay [1] is on record as “prevented”.

On to `CCCn1c(=O)c2[nH]c(C3CCCC3)nc2n(CCC)c1=O` [DPCPX, 1,3-dipropyl-8-cyclopentylxanthine], for which the “effect on myocyte contractility when administered alone” value with rat ventricular myocytes (100 μM adenosine or 0.2 μM DPCPX) is listed as “without effect”. Also, the “effect on the PIA reduction of the ISO induced contractile responses” value with rat ventricular myocytes (DPCPX at 0.2 μM, ISO 0.2 μM, PIA 2 μM) is “reversed”. Also, in the assay on rat ventricular myocytes (setting [3]), the “+dL/dtmax, maximal rate of shortening” value is reported as 179 ± 9 μm/msec; the “-dL/dtmax, maximal rate of relaxation” value was determined as 147 ± 11 μm/msec; the “DS, duration of shortening” value came out at 279 ± 15 ms; the “LC, maximum length change (shortening) with contraction” value is 17 ± 1 μm. For the same compound, in the assay with rat ventricular myocytes (setting [3]), the “TPS, time-to-peak shortening” value was determined as 116 ± 3 ms and the “TR, time to 75% relaxation” value was 264 ± 11 ms. For the same compound, in the assay on rat ventricular myocytes (setting [4]), the “further increase of the ISO induced enhancement in +dL/dtmax” value amounted to 40%, the “further increase of the ISO induced enhancement in LC” value is 26% and the “lowering of DS below that observed in the presence of PIA+ISO” value is reported as 27%. Besides, the “effect on the PIA inhibition of ISO stimulated adenylyl cyclase activity” value in assay [2] was “prevented”.

These data come from patent US5629298A, “Adenosine as a positive inotrop in the compromised heart” (University of Massachusetts Medical Center, priority 1995, dated 1997).
